Data on two compounds can be found in US20240315952A1, “PERSONAL CARE COMPOSITION” (Conopco, Inc., d/b/a UNILEVER, priority 2020, published 2024).

In general, Inhibition refers to the percentage by which the read-out fell short of the control.

This test has as its system IL-1α. As to the kind of experiment: IL-1α expression in EpiKutis living skin equivalent (LSE) stressed with 1% SQOOH, human immunoassay kit. The test is classed as cell-based. Particulars: levels are raw material wt %; for IL-1α level: EpiKutis 3D reconstructed human epidermis, sample applied topically, then 3 μL of 1% SQOOH, after 72 hours; for Inhibition: inhibition of IL-1α vs 1% SQOOH control, EpiKutis LSE, 72 hours. The protocol: EpiKutis® living skin equivalent (LSE), is a 3D reconstructed human epidermis model with Chinese human keratinocytes through air-liquid interface culture in a defined serum free medium, supplied by supplied by Biocell (Xi'an, China). Squalene monohydroperoxide (SQOOH), a stress surrogate, was prepared in house, by subjecting squalene to solar irradiation in the presence of a sensitizer.
The SQOOH was diluted using squalene. The moringa oil was dissolved in DMSO (dimethyl sulfoxide) at a concentration of 100 mM to form a stock solution. The samples in Table 1 were prepared accordingly by diluting the materials except moringa oil and/or stock solution with PBS (phosphate-buffered saline) to the desired levels as indicated in Table 1 before use for further experiment.
The sample was applied topically to the LSE followed by application of 3 μL of 1% SQOOH. The medium was then refreshed with interval of 24 hours. After 72 hours, the tissues were collected for histology and to test the extent of viability. The IL-1a expression was evaluated using a human immunoassay kit from R&D systems (Cat. DLA 50) and tested following the manufacturer's instructions.

Consider `NC(=O)c1cccnc1` [Sample 5, Niacinamide], for which the IL-1α level came to 6.6 ± 0.63 pg/mL and the Inhibition is on record as 25.33%.
With `NC(=O)c1cccnc1` [Sample 6, Niacinamide], the IL-1α level is reported as 5.8 ± 0.60 pg/mL and the Inhibition is 33.57%.
